The record followed here is ChEMBL document CHEMBL5346968, “Exploring Structural Determinants of Bias among D4 Subtype-Selective Dopamine Receptor Agonists” (J Med Chem, 2023).

pEC50, pKi: −log10 of the molar value.

In test [1] the target is T1, D(4) dopamine receptor (Homo sapiens, UniProt P21917).
T1 sequence (P21917 whole entry): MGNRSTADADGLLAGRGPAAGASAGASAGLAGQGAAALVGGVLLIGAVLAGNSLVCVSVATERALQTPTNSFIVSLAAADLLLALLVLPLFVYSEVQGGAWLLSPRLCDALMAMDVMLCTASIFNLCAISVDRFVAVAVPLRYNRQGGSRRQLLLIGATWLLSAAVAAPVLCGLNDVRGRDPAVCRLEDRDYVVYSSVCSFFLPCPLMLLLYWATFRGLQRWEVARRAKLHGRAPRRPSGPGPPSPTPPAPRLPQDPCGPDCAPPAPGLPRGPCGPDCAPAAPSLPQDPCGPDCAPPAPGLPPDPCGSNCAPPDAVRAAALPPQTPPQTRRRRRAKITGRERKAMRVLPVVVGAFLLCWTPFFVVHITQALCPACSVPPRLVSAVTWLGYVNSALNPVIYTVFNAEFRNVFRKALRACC
Put plainly: Agonist activity at human dopamine D4 receptor transfected in HEK293T cells co-transfected with Galpha-qi assessed as activation of GPCR-mediated receptor signaling incubated for 90 mins by IP-one HTRF assay. The format is functional, cell-based.

Test [2] concerns the target T1, D(4) dopamine receptor. The test can be described thus: Agonist activity at PKA-tagged human dopamine D4 receptor transfected in HEK293T cells expressing (EA)-beta-arrestin assessed as beta-arrestin recruitment incubated for 3 hrs by chemiluminescence based PathHunter assay. Type of test: functional, cell-based.
The target of test [3] is T1, D(4) dopamine receptor. Put plainly: Agonist activity at PKA-tagged human dopamine D4 receptor transfected in HEK293T cells expressing (EA)-beta-arrestin and GRK2 assessed as beta-arrestin recruitment incubated for 3 hrs by chemiluminescence based PathHunter assay. Type of test: functional, cell-based.
In test [4] the target is T2, D(2) dopamine receptor (Homo sapiens, UniProt P14416). The test can be described thus: Displacement of [3H]-N-methylspiperone from human dopmaine D2L receptor expressed in CHO cell membrane assessed as inhibition constant by competition binding assay. The format is cell membranes.
Test [5] deals with T2, D(2) dopamine receptor. The test can be described thus: Displacement of [3H]-N-methylspiperone from human dopmaine D2S receptor expressed in CHO cell membrane assessed as inhibition constant by competition binding assay. Type of test: cell membranes.
Another test deals with D(3) dopamine receptor (Homo sapiens, UniProt P35462). The test can be described thus: Displacement of [3H]-N-methylspiperone from human dopmaine D3 receptor expressed in HEK293T cells assessed as inhibition constant by competition binding assay. Type of test: cell-based.
Test [6] concerns the target T1, D(4) dopamine receptor. Put plainly: Displacement of [3H]-N-methylspiperone from human dopmaine D4.4 receptor expressed in HEK293T cells assessed as inhibition constant by competition binding assay. The format is cell-based.
For the next test, the target named is D(1A) dopamine receptor (Homo sapiens, UniProt P21728). The test can be described thus: Displacement of [3H]SCH23390 from human dopamine D1 receptor expressed in HEK293T cells assessed as inhibition constant by competition binding assay. Type of test: cell-based.
Another test has as its target D(1B) dopamine receptor (Homo sapiens, UniProt P21918). The test can be described thus: Displacement of [3H]SCH23390 from human dopamine D5 receptor expressed in HEK293T cells assessed as inhibition constant by competition binding assay. Type of test: cell-based.
Test [7] concerns the target T3, Alpha-1A adrenergic receptor (Homo sapiens, UniProt P35348).
T3 sequence (P35348 whole entry): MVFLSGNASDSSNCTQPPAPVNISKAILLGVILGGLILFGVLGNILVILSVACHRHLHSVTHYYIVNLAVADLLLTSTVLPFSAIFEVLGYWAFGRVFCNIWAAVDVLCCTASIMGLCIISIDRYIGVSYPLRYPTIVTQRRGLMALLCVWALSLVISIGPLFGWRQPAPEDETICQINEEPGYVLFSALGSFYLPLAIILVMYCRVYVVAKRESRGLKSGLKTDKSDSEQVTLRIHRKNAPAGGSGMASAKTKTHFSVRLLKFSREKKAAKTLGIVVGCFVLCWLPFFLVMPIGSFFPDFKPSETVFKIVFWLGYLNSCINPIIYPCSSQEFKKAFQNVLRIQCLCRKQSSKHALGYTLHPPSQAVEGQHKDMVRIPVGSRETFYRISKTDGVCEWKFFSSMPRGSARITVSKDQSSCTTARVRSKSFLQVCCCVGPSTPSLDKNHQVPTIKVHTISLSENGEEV
The test can be described thus: Displacement of [3H]prazosin from adrenergic alpha 1A receptor (unknown origin) expressed in HEK293T cells assessed as inhibition constant by competition binding assay. The format is cell-based.

Test [8] concerns the target T4, Alpha-2A adrenergic receptor (Homo sapiens, UniProt P08913).
T4 sequence (P08913 whole entry): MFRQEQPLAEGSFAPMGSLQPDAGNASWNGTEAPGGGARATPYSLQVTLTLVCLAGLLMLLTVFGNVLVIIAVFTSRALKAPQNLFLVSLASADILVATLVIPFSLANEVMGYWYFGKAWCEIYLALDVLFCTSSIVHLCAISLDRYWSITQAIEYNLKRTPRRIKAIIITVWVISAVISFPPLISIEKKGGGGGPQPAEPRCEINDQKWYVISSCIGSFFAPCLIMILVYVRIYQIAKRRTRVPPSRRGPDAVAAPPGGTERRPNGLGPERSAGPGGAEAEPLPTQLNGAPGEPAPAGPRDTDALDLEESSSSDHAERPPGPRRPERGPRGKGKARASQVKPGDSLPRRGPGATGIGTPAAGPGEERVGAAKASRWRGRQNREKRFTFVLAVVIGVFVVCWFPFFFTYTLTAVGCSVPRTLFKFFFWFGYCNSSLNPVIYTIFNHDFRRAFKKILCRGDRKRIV
Put plainly: Displacement of [3H]RX821002 from adrenergic alpha 2A receptor (unknown origin) expressed in HEK293T cells assessed as inhibition constant by competition binding assay. Type of test: cell-based.

Test [9] addresses T5, 5-hydroxytryptamine receptor 1A (Homo sapiens, UniProt P08908).
T5 sequence (P08908 whole entry): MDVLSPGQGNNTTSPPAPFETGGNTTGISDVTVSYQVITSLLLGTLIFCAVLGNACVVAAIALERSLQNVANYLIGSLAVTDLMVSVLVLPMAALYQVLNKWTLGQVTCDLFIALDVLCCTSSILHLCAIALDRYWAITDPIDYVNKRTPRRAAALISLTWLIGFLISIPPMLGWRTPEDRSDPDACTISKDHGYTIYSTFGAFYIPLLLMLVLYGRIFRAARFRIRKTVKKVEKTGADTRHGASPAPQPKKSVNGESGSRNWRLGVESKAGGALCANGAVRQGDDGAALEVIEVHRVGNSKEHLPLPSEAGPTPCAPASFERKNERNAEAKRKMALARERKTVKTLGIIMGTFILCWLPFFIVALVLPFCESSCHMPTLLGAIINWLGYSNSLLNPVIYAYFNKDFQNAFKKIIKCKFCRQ
Put plainly: Displacement of [3H][…] from 5-HT1A receptor (unknown origin) expressed in HEK293T cells assessed as inhibition constant by competition binding assay. The format is cell-based.

Test [10] addresses 5-hydroxytryptamine receptor 2A (Homo sapiens, UniProt P28223). The test can be described thus: Displacement of [3H]ketanserin from 5-HT2A receptor (unknown origin) expressed in HEK293T cells assessed as inhibition constant by competition binding assay. The format is cell-based.

D(3) dopamine receptor, sequence (P35462 whole entry): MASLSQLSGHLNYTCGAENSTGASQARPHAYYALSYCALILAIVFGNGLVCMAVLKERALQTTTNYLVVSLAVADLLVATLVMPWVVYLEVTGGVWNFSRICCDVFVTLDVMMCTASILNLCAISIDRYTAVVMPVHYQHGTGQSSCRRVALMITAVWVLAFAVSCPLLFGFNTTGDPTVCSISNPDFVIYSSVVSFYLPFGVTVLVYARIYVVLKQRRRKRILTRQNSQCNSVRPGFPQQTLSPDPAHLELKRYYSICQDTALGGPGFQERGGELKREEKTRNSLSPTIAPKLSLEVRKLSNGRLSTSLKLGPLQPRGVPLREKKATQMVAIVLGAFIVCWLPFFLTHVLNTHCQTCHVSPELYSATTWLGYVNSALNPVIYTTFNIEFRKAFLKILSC
T2 sequence (P14416 whole entry): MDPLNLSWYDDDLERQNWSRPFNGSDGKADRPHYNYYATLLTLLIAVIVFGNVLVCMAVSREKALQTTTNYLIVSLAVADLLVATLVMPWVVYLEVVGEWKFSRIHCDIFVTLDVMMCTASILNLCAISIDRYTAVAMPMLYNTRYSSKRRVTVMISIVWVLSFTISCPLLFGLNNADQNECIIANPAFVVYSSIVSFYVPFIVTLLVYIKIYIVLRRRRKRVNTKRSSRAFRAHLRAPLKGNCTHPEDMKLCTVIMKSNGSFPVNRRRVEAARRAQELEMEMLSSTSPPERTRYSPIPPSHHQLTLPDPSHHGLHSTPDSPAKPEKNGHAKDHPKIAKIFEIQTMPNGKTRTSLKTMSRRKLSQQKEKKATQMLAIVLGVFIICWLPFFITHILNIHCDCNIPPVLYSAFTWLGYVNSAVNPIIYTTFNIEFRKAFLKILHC
D(1B) dopamine receptor, sequence (P21918 whole entry): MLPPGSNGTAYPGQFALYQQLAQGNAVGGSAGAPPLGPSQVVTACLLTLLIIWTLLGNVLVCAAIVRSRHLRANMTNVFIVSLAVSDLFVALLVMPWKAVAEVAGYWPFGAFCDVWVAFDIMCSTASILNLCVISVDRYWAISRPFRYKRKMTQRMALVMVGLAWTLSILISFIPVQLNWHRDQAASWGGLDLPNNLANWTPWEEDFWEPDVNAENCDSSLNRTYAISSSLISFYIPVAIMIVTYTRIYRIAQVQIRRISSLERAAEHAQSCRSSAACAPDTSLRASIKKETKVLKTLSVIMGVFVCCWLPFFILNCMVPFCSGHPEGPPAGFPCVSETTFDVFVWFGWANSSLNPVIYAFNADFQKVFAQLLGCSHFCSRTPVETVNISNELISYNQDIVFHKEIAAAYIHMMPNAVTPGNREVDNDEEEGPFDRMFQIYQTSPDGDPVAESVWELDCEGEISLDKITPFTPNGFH
D(1A) dopamine receptor, sequence (P21728 whole entry): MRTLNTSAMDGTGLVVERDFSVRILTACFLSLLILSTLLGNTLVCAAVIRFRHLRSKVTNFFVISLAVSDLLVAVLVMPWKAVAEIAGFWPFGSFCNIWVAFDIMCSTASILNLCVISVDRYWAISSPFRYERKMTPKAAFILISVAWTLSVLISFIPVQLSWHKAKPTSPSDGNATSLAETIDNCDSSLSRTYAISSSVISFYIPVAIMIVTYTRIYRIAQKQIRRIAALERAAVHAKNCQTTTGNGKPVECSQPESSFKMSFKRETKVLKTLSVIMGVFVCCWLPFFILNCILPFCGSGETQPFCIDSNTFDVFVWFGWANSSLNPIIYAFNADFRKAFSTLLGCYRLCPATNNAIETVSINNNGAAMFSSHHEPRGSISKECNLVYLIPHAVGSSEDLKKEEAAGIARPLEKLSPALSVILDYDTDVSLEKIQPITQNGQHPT
5-hydroxytryptamine receptor 2A, sequence (P28223 whole entry): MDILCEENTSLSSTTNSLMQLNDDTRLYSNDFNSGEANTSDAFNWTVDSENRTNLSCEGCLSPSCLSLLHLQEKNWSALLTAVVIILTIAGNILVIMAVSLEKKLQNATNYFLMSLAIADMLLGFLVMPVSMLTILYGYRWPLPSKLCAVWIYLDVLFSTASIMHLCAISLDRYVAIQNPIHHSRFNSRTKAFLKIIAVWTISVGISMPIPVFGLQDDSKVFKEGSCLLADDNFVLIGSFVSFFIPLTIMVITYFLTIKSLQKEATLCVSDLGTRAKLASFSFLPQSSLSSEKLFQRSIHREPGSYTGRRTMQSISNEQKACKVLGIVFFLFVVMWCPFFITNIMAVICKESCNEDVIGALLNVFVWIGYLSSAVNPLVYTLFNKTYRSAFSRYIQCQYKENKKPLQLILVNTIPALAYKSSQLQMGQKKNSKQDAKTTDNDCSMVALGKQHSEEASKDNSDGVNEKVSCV

Take `COc1ccccc1N1CCN(CCCNC(=O)NN(Cc2ccc(F)cc2)c2ccccc2)CC1`: the pEC50 was 8.74 at D(4) dopamine receptor [1], 6.46 at D(4) dopamine receptor [2] and 7.38 on D(4) dopamine receptor [3].
For `COc1ccccc1N1CCN(CCCNC(=O)NN(Cc2ccccc2)c2ccc(F)cc2)CC1`, the pEC50 on D(4) dopamine receptor [1] is 7.39; on D(4) dopamine receptor [2], 6.33; on D(4) dopamine receptor [3] it was 6.39.
Take `COc1ccccc1N1CCN(CCCNC(=O)Nc2ccc(F)cc2-c2ccccc2)CC1`: the pKi was 6.85 at D(2) dopamine receptor [4], 7.51 on D(2) dopamine receptor [5] and 7.54 at D(3) dopamine receptor.
On to `COc1ccccc1N1CCN(CCCNC(=O)NCc2ccccc2-c2ccc(F)cc2)CC1`, for which the pKi at D(2) dopamine receptor [4] was 6.68; at D(2) dopamine receptor [5] it was 7.12; at D(3) dopamine receptor, 7.00; at D(4) dopamine receptor [6], 8.28.
Consider `COc1ccccc1N1CCN(CCCNC(=O)NCc2ccccc2-c2ccc(C(C)C)cc2)CC1`, for which the pKi on D(2) dopamine receptor [4] was 6.40; on D(2) dopamine receptor [5], 6.77; at D(3) dopamine receptor, 6.72; at D(4) dopamine receptor [6], 7.44.
For `C#CCOc1ccc(NC(=O)NCCCN2CCN(c3ccccc3OC)CC2)c(-c2ccccc2)c1`, the negative logarithm of the Ki (pKi) at D(2) dopamine receptor [4] was 7.07; at D(2) dopamine receptor [5] it was 7.34; on D(3) dopamine receptor, 7.41; at D(4) dopamine receptor [6], 8.46.
Consider `COc1ccc(-c2ccccc2)c(CNC(=O)NCCCN2CCN(c3ccccc3OC)CC2)c1`, for which the pKi on D(2) dopamine receptor [4] was 6.89; at D(2) dopamine receptor [5], 7.11; on D(3) dopamine receptor, 6.92; at D(1A) dopamine receptor, 6.55; at D(1B) dopamine receptor, 5.52; in [7], 8.05. For the same molecule, the pKi in test [8] was 6.70; in test [9], 7.57; in [10] it was 6.92.
Turning to `COc1ccccc1N1CCN(CCCNC(=O)NCc2ccccc2-c2cccc(F)c2)CC1`, the pKi on D(2) dopamine receptor [4] is 7.07; at D(2) dopamine receptor [5], 7.17; on D(3) dopamine receptor, 6.68; at D(4) dopamine receptor [6], 8.51.
The matching figures for `COc1ccccc1N1CCN(CCCNC(=O)NCc2ccccc2-c2ccc(-c3ccccc3)cc2)CC1`: 6.34, 6.54, 6.43 and 7.82.
For `COc1ccc(NC(=O)NCCCN2CCN(c3ccccc3OC)CC2)cc1-c1ccc(F)cc1`, in that order: 7.05, 7.28, 7.18 and 8.24.
Turning to `COc1ccccc1N1CCN(CCCNC(=O)Nc2ccccc2-c2ccc(C(C)C)cc2)CC1`, the pKi at D(2) dopamine receptor [4] is 6.82; on D(2) dopamine receptor [5], 7.05; on D(3) dopamine receptor it was 7.47.
Consider `COc1cccc(-c2ccccc2NC(=O)NCCCN2CCN(c3ccccc3OC)CC2)c1`, for which the pKi on D(2) dopamine receptor [4] is 6.92; on D(2) dopamine receptor [5] it was 6.96; at D(3) dopamine receptor, 7.62; on D(4) dopamine receptor [6], 8.00.
Regarding `COc1ccccc1N1CCN(CCCNC(=O)NCc2cccc(F)c2-c2ccccc2)CC1`, the pKi is 7.21 at D(3) dopamine receptor and 8.96 at D(4) dopamine receptor [6].
Regarding `COc1ccccc1N1CCN(CCCNC(=O)Nc2ccc(-c3ccccc3)cc2)CC1`, the pKi at D(2) dopamine receptor [4] was 6.47; on D(2) dopamine receptor [5], 6.89; on D(3) dopamine receptor it was 7.66; at D(4) dopamine receptor [6], 6.96.
For `COc1cccc(-c2ccccc2CNC(=O)NCCCN2CCN(c3ccccc3OC)CC2)c1`, in that order: 6.66, 7.06, 7.12 and 7.89.
For `COc1ccccc1N1CCN(CCCNC(=O)Nc2ccccc2-c2ccc(C(C)(C)C)cc2)CC1`, in that order: 6.92, 7.11, 7.15 and 7.52.
With `COc1ccccc1N1CCN(CCCNC(=O)NCc2c(F)cccc2-c2ccccc2)CC1`, the negative logarithm of the Ki (pKi) was 6.68 at D(2) dopamine receptor [4], 6.85 at D(2) dopamine receptor [5] and 7.14 at D(3) dopamine receptor.
Consider `COCCOCCOc1ccc(NC(=O)NCCCN2CCN(c3ccccc3OC)CC2)c(-c2ccccc2)c1`, for which the pKi is 6.89 on D(2) dopamine receptor [4]; 7.13 at D(2) dopamine receptor [5]; 7.07 on D(3) dopamine receptor; 7.66 on D(1A) dopamine receptor; 5.41 on D(1B) dopamine receptor; 7.42 in [7]. Further, the results for the pKi in test [8], in test [9] and in test [10] were 6.39, 6.66 and 5.82, respectively.
With `COc1ccccc1N1CCN(CCCNC(=O)NCc2ccccc2-c2ccc(C)cc2)CC1`, the pKi was 6.96 on D(2) dopamine receptor [4], 7.21 at D(2) dopamine receptor [5], 7.05 at D(3) dopamine receptor and 8.38 at D(4) dopamine receptor [6].
Take `COc1ccccc1N1CCN(CCCNC(=O)Nc2cccc(-c3ccccc3)c2)CC1`: the pKi was 7.34 on D(2) dopamine receptor [4], 7.74 at D(2) dopamine receptor [5], 7.59 on D(3) dopamine receptor and 8.14 on D(4) dopamine receptor [6].
The matching figures for `COc1ccccc1N1CCN(CCCNC(=O)NCc2cc(F)ccc2-c2ccccc2)CC1`: 7.06, 7.42, 6.82 and 8.34.
As to `COc1ccccc1N1CCN(CCCNC(=O)Nc2ccccc2-c2cccc(F)c2)CC1`, the pKi on D(2) dopamine receptor [4] is 6.77; on D(2) dopamine receptor [5], 6.96; at D(3) dopamine receptor, 7.64; on D(4) dopamine receptor [6], 8.40.
As for `COc1ccccc1N1CCN(CCCNC(=O)NCc2ccc(F)cc2-c2ccccc2)CC1`, the pKi is 7.14 at D(2) dopamine receptor [4], 7.40 on D(2) dopamine receptor [5], 7.00 at D(3) dopamine receptor and 8.57 on D(4) dopamine receptor [6].
For `COc1ccc(CNC(=O)NCCCN2CCN(c3ccccc3OC)CC2)c(-c2ccccc2)c1`, in that order: 6.80, 7.43, 7.04 and 8.51.
